Activity calls are given as the source filed them. The rule behind the calls is not given here. Square brackets hold non-standard residues; d marks the D form. Peptide text beside a SMILES is read from it. * marks the point of attachment. X1 = CC(=O)N[C@H]1[C@H](O[C@H]2[C@@H](O)[C@H](O)[C@@H](CO)O[C@@H]2*)O[C@H](CO)[C@@H](O[C@@H]2O[C@H](CO)[C@H](O)[C@H](O[C@]3(C(=O)O)C[C@H](O)[C@@H](NC(C)=O)[C@H]([C@H](O)[C@H](O)CO)O3)[C@H]2O)[C@@H]1O; X2 = CC(=O)N[C@H]1[C@H](O[C@H]2[C@@H](O)[C@H](O)[C@@H](CO)O[C@@H]2*)O[C@H](CO)[C@@H](O[C@@H]2O[C@H](CO)[C@H](O)[C@H](O)[C@H]2O)[C@@H]1O; GlcNAc(β1-2)αMan = CC(=O)N[C@H]1[C@H](O[C@H]2[C@@H](O)[C@H](O)[C@@H](CO)O[C@@H]2*)O[C@H](CO)[C@@H](O)[C@@H]1O; Orn(CH(NH2)2) = NC(N)NCCC[C@H](N)C(=O)O; Hexanoyl(5-oxo) = CC(=O)CCCC(=O)*
Key:
[1] = target: Lactotransferrin (Homo sapiens) (UniProt P02788); experiment: Binding affinity to biotin-labeled lactoferrin (unknown origin) at 10 ug/ml in pH 5.6 MES buffer by fluorescence microarray method
Lactotransferrin (Homo sapiens), sequence (P02788 whole entry): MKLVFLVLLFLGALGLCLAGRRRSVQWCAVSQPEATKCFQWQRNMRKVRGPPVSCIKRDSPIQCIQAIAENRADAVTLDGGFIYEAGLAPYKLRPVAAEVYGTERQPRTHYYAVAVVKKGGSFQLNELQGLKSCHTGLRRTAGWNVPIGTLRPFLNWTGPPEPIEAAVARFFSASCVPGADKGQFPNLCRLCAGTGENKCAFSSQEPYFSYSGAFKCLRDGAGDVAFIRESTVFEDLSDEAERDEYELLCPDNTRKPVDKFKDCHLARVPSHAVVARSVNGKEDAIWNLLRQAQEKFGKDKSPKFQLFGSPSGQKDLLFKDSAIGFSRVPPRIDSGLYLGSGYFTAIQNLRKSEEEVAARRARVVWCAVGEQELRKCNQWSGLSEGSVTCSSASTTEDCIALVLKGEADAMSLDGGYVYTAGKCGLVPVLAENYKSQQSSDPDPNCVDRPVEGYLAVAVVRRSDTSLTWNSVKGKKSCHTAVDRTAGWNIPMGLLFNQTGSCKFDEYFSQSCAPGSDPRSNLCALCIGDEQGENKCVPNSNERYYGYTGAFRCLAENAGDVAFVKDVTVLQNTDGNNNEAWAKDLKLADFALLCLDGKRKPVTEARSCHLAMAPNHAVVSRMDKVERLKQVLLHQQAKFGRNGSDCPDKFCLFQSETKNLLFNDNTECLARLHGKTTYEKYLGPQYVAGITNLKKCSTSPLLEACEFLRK

[2] = target: Lactotransferrin (Homo sapiens) (UniProt P02788); experiment: Binding affinity to biotin-labeled lactoferrin (unknown origin) at 10 ug/ml in pH 7.4 Tris buffer by fluorescence microarray method
[3] = target: Laminin subunit alpha-1 (Homo sapiens) (UniProt P25391); experiment: Binding affinity to biotin-labeled human recombinant laminin-1 at 10 ug/ml in pH 5.6 MES buffer by fluorescence microarray method
Laminin subunit alpha-1 (Homo sapiens), sequence (P25391 whole entry): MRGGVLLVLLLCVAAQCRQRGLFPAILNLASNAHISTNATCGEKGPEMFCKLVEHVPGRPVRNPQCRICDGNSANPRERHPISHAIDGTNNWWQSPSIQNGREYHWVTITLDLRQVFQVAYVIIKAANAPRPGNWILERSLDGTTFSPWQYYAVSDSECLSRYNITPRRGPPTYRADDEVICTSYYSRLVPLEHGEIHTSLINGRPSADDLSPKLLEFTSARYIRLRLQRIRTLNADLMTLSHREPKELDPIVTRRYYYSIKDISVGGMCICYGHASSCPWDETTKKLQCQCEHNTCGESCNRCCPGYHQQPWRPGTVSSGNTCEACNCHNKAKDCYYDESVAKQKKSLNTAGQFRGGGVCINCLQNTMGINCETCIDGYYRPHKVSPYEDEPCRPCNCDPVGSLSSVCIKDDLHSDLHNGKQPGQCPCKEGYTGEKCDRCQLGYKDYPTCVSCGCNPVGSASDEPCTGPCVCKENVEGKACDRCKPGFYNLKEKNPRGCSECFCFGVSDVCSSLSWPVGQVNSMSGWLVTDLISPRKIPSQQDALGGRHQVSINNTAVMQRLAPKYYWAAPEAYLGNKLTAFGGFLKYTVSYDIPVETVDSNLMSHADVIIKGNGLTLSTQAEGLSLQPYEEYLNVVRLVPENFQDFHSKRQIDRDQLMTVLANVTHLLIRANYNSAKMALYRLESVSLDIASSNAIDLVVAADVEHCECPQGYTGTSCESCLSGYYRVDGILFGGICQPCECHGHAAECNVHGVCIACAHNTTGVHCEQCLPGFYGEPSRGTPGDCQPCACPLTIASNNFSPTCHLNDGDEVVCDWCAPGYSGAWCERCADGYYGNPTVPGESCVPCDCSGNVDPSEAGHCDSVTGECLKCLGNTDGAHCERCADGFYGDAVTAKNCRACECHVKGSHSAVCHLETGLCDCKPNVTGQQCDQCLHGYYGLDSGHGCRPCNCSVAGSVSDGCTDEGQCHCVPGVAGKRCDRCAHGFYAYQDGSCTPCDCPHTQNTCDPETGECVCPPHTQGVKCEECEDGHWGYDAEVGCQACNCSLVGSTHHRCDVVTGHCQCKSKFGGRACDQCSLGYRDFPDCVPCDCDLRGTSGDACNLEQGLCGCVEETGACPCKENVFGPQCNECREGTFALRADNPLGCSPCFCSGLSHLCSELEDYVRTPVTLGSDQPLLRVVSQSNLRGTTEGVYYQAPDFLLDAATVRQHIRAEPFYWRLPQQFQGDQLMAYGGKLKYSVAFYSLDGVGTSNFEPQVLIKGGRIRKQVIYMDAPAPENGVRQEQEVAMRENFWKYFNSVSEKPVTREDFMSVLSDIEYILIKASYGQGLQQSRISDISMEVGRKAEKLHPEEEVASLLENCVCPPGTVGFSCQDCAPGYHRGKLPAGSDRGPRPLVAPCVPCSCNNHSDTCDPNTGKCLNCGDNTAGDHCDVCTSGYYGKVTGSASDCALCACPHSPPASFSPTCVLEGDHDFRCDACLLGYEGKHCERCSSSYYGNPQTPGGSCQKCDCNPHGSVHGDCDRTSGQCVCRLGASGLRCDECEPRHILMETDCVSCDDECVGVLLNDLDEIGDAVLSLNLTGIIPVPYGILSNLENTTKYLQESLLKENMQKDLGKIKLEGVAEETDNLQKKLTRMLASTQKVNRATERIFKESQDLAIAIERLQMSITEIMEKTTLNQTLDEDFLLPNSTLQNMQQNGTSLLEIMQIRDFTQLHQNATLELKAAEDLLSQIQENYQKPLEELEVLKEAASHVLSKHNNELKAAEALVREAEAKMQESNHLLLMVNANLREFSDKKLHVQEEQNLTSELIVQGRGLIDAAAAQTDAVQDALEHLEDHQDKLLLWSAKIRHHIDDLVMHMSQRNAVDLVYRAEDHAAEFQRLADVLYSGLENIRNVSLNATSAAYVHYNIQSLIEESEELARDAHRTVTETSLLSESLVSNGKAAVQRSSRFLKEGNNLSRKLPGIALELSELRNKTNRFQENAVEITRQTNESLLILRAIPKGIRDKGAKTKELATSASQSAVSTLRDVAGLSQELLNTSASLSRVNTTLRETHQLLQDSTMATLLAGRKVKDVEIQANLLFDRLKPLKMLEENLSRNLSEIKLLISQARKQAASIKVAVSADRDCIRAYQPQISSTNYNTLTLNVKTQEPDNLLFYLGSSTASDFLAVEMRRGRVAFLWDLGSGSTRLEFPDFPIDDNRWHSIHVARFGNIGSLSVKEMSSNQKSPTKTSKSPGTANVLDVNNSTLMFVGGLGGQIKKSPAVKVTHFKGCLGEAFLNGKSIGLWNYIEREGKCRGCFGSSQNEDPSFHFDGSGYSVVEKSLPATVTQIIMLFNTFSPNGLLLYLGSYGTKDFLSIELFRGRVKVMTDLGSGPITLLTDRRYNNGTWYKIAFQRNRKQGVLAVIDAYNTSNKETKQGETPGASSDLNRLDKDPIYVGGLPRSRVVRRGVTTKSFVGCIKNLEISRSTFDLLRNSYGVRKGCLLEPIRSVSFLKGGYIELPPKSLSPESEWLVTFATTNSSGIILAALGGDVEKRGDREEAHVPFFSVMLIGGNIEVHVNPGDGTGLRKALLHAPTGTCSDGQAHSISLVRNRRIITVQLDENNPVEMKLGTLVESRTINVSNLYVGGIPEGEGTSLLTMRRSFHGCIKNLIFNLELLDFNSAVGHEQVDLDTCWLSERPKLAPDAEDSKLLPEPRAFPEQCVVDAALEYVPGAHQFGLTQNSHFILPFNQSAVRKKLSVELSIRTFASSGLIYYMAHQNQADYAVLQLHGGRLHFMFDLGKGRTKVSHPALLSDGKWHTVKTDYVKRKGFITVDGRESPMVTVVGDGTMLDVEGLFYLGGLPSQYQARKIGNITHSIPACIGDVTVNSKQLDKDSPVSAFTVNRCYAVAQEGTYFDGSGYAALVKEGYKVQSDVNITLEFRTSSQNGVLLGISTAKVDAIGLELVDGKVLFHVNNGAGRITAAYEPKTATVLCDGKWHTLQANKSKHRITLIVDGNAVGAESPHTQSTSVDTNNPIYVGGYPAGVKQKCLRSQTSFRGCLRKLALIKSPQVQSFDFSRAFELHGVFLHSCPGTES

Homo sapiens [4] = species on record: Homo sapiens; experiment: Binding affinity to biotin-labeled human recombinant laminin-2 at 10 ug/ml in pH 7.4 Tris buffer by fluorescence microarray method
Homo sapiens [5] = species on record: Homo sapiens; experiment: Binding affinity to biotin-labeled human recombinant laminin-2 at 10 ug/ml in 5.6 MES buffer by fluorescence microarray method
Canavalia ensiformis = experiment: Binding affinity to biotin-labeled Canavalia ensiformis agglutinin in pH 7.4 Tris buffer by fluorescence microarray method
[6] = system: Sambucus racemosa subsp. sieboldiana; experiment: Binding affinity to biotin-labeled Sambucus sieboldiana agglutinin in pH 7.4 Tris buffer by fluorescence microarray method
Erythrina crista-galli = experiment: Binding affinity to biotin-labeled Erythrina crista-galli agglutinin in pH 7.4 Tris buffer by fluorescence microarray method
Triticum aestivum = experiment: Binding affinity to biotin-labeled Wheat germ agglutinin in pH 7.4 Tris buffer by fluorescence microarray method
Maackia amurensis = experiment: Binding affinity to biotin-labeled Maackia amurensis agglutinin in pH 7.4 Tris buffer by fluorescence microarray method
Datura stramonium = experiment: Binding affinity to biotin-labeled Datura stramonium agglutinin in pH 7.4 Tris buffer by fluorescence microarray method
[7] = Binding affinity to biotin-labeled Agaricus bisporus agglutinin in pH 7.4 Tris buffer by fluorescence microarray method
[8] = target: Laminin subunit alpha-1 (Homo sapiens) (UniProt P25391); experiment: Binding affinity to biotin-labeled human recombinant laminin-1 at 10 ug/ml in pH 7.4 Tris buffer by fluorescence microarray method
Arachis hypogaea = experiment: Binding affinity to biotin-labeled Arachis hypogaea agglutinin in pH 7.4 Tris buffer by fluorescence microarray method

Row | SMILES | Activity [1] | Activity [2] | Activity [3] | Activity (Homo sapiens [4]) | Activity (Homo sapiens [5]) | Activity (Canavalia ensiformis) | Activity [6] | Activity (Erythrina crista-galli) | Activity (Triticum aestivum) | Activity (Maackia amurensis) | Activity (Datura stramonium) | Activity [7] | Activity [8] | Activity (Arachis hypogaea)
1 | CC[C@H](C)[C@H](NC(=O)[C@H](C)NC(=O)CNC(=O)[C@H](CCCNC(=N)N)NC(=O)[C@@H](NC(=O)CCCC(C)=O)[C@@H](C)O)C(=O)N[C@H](C(=O)N[C@@H](CCC(N)=O)C(=O)N[C@H](C(=O)N1CCC[C@H]1C(=O)N[C@H](C(=O)N[C@@H](CC(C)C)C(=O)NCC(=O)N1CCC[C@H]1C(=O)N[C@H](C(=O)N[C@@H](CCC(N)=O)C(=O)N1CCC[C@H]1C(=O)N[C@H](C(=O)N[C@@H](CCCNC(=N)N)C(=O)N[C@H](C(N)=O)C(C)C)[C@@H](C)O[C@H]1O[C@H](CO)[C@@H](O)[C@H](O)[C@@H]1O[C@@H]1O[C@H](CO)[C@@H](O[C@@H]2O[C@H](CO)[C@H](O)[C@H](O[C@]3(C(=O)O)C[C@H](O)[C@@H](NC(C)=O)[C@H]([C@H](O)[C@H](O)CO)O3)[C@H]2O)[C@H](O)[C@H]1NC(C)=O)[C@@H](C)CC)[C@@H](C)O[C@H]1O[C@H](CO)[C@@H](O)[C@H](O)[C@@H]1O[C@@H]1O[C@H](CO)[C@@H](O[C@@H]2O[C@H](CO)[C@H](O)[C@H](O[C@]3(C(=O)O)C[C@H](O)[C@@H](NC(C)=O)[C@H]([C@H](O)[C@H](O)CO)O3)[C@H]2O)[C@H](O)[C@H]1NC(C)=O)[C@@H](C)O[C@H]1O[C@H](CO)[C@@H](O)[C@H](O)[C@@H]1O[C@@H]1O[C@H](CO)[C@@H](O[C@@H]2O[C@H](CO)[C@H](O)[C@H](O[C@]3(C(=O)O)C[C@H](O)[C@@H](NC(C)=O)[C@H]([C@H](O)[C@H](O)CO)O3)[C@H]2O)[C@H](O)[C@H]1NC(C)=O)[C@@H](C)CC | Active | inactive | Active | inactive | Active | Active | Active | Active | Active | inactive | inactive | Active | Active | Active
2 | CC[C@H](C)[C@H](NC(=O)[C@H](C)NC(=O)CNC(=O)[C@H](CCCNC(=N)N)NC(=O)[C@@H](NC(=O)CCCC(C)=O)[C@@H](C)O)C(=O)N[C@H](C(=O)N[C@@H](CCC(N)=O)C(=O)N[C@H](C(=O)N1CCC[C@H]1C(=O)N[C@H](C(=O)N[C@@H](CC(C)C)C(=O)NCC(=O)N1CCC[C@H]1C(=O)N[C@H](C(=O)N[C@@H](CCC(N)=O)C(=O)N1CCC[C@H]1C(=O)N[C@H](C(=O)N[C@@H](CCCNC(=N)N)C(=O)N[C@H](C(N)=O)C(C)C)[C@@H](C)O)[C@@H](C)CC)[C@@H](C)O[C@H]1O[C@H](CO)[C@@H](O)[C@H](O)[C@@H]1O[C@@H]1O[C@H](CO)[C@@H](O)[C@H](O)[C@H]1NC(C)=O)[C@@H](C)O[C@H]1O[C@H](CO)[C@@H](O)[C@H](O)[C@@H]1O[C@@H]1O[C@H](CO)[C@@H](O)[C@H](O)[C@H]1NC(C)=O)[C@@H](C)CC ({Hexanoyl(5-oxo)}-TRGAIIQT(GlcNAc(β1-2)αMan)PT(GlcNAc(β1-2)αMan)LGPIQPTRV-NH2) | Active | inactive | Active | inactive | Active | Active | Active | Active | Active | inactive | inactive | Active | Active | Active
3 | CC[C@H](C)[C@H](NC(=O)[C@H](C)NC(=O)CNC(=O)[C@H](CCCNC(=N)N)NC(=O)[C@@H](NC(=O)CCCC(C)=O)[C@@H](C)O)C(=O)N[C@H](C(=O)N[C@@H](CCC(N)=O)C(=O)N[C@H](C(=O)N1CCC[C@H]1C(=O)N[C@H](C(=O)N[C@@H](CC(C)C)C(=O)NCC(=O)N1CCC[C@H]1C(=O)N[C@H](C(=O)N[C@@H](CCC(N)=O)C(=O)N1CCC[C@H]1C(=O)N[C@H](C(=O)N[C@@H](CCCNC(N)N)C(=O)N[C@H](C(N)=O)C(C)C)[C@@H](C)O[C@H]1O[C@H](CO)[C@@H](O)[C@H](O)[C@@H]1O[C@@H]1O[C@H](CO)[C@@H](O[C@@H]2O[C@H](CO)[C@H](O)[C@H](O)[C@H]2O)[C@H](O)[C@H]1NC(C)=O)[C@@H](C)CC)[C@@H](C)O)[C@@H](C)O)[C@@H](C)CC ({Hexanoyl(5-oxo)}-TRGAIIQTPTLGPIQPT(X2)[Orn(CH(NH2)2)]V-NH2) | Active | inactive | Active | inactive | Active | Active | Active | Active | Active | inactive | inactive | Active | Active | Active
4 | CC[C@H](C)[C@H](NC(=O)[C@H](C)NC(=O)CNC(=O)[C@H](CCCNC(=N)N)NC(=O)[C@@H](NC(=O)CCCC(C)=O)[C@@H](C)O)C(=O)N[C@H](C(=O)N[C@@H](CCC(N)=O)C(=O)N[C@H](C(=O)N1CCC[C@H]1C(=O)N[C@H](C(=O)N[C@@H](CC(C)C)C(=O)NCC(=O)N1CCC[C@H]1C(=O)N[C@H](C(=O)N[C@@H](CCC(N)=O)C(=O)N1CCC[C@H]1C(=O)N[C@H](C(=O)N[C@@H](CCCNC(=N)N)C(=O)N[C@H](C(N)=O)C(C)C)[C@@H](C)O)[C@@H](C)CC)[C@@H](C)O[C@H]1O[C@H](CO)[C@@H](O)[C@H](O)[C@@H]1O[C@@H]1O[C@H](CO)[C@@H](O)[C@H](O)[C@H]1NC(C)=O)[C@@H](C)O)[C@@H](C)CC ({Hexanoyl(5-oxo)}-TRGAIIQTPT(GlcNAc(β1-2)αMan)LGPIQPTRV-NH2) | Active | inactive | Active | inactive | Active | Active | Active | Active | Active | inactive | inactive | Active | Active | Active
5 | CC[C@H](C)[C@H](NC(=O)[C@H](C)NC(=O)CNC(=O)[C@H](CCCNC(=N)N)NC(=O)[C@@H](NC(=O)CCCC(C)=O)[C@@H](C)O)C(=O)N[C@H](C(=O)N[C@@H](CCC(N)=O)C(=O)N[C@H](C(=O)N1CCC[C@H]1C(=O)N[C@H](C(=O)N[C@@H](CC(C)C)C(=O)NCC(=O)N1CCC[C@H]1C(=O)N[C@H](C(=O)N[C@@H](CCC(N)=O)C(=O)N1CCC[C@H]1C(=O)N[C@H](C(=O)N[C@@H](CCCNC(=N)N)C(=O)N[C@H](C(N)=O)C(C)C)[C@@H](C)O)[C@@H](C)CC)[C@@H](C)O)[C@@H](C)O[C@H]1O[C@H](CO)[C@@H](O)[C@H](O)[C@@H]1O[C@@H]1O[C@H](CO)[C@@H](O[C@@H]2O[C@H](CO)[C@H](O)[C@H](O[C@]3(C(=O)O)C[C@H](O)[C@@H](NC(C)=O)[C@H]([C@H](O)[C@H](O)CO)O3)[C@H]2O)[C@H](O)[C@H]1NC(C)=O)[C@@H](C)CC ({Hexanoyl(5-oxo)}-TRGAIIQT(X1)PTLGPIQPTRV-NH2) | Active | inactive | Active | inactive | Active | Active | Active | Active | Active | inactive | inactive | Active | Active | Active
